# Laboratory results: US5496697A, “Methods and apparatus for detecting the effect of cell affecting agents on living cells” (priority 1993, dated 1996)
# Assays:
# [1] = target: T1, rat M1 muscarinic receptor (Rattus norvegicus, UniProt P08482); assay: metabolic rate of M1C-2 cells (B82 cells transfected with rat M1 muscarinic receptor); conditions: atropine alone, FIG. 28
# T1 sequence (P08482 1-460): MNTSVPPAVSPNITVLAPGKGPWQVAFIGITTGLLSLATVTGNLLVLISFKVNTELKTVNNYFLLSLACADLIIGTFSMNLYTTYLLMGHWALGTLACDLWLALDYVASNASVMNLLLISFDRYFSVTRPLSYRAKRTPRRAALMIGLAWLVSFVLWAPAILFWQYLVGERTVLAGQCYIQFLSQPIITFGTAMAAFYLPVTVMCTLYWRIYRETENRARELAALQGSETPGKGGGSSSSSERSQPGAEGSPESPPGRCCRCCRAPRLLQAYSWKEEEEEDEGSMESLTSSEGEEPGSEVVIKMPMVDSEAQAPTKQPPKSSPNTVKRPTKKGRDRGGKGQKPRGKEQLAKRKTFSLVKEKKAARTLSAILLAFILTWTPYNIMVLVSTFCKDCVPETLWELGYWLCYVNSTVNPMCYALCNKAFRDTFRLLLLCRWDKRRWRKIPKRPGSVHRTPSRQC
# [2] = tested on: vesicular stomatitis virus (VSV); format: cell-based; conditions: VSV-infected L cells, FIGS. 36-39
# [3] = tested on: normal human keratinocytes; assay: metabolic rate of EGF-starved normal human keratinocytes; format: cell-based
# Procedure: Normal human keratinocytes require epidermal growth factor (EGF) for proliferation without differentiation. Keratinocytes (from Clonetics, Inc.) were cultured in the absence of EGF for a period of 24 hours prior to the experiment. For the experiment, the keratinocytes were assembled into four flow chambers and the alternating stop-flow sequence was initiated with medium containing no EGF. At the time indicated by the arrow in FIG. 43, the syringes containing medium were changed on all four flow chambers. The second medium contained 5 ng/ml mouse EGF, or 1.25 μg/ml of a neutralizing rabbit anti-mouse-EGF polyclonal IgC, or both. A control with no EGF or IgC was also run. […] Addition of the anti-EGF antibody alone had no effect.
# In a separate experiment, the growth medium for the normal human epidermal keratinocytes contained 10 ng/mL murine EGF, a substance found to be mitogenic for keratinocytes. […] It does show the same rising baseline, which probably indicates some combination of cell proliferation and adaptation to the environmental conditions in the flow chamber.
# Stimulation of acidification rate was observable down to 0.1 ng/mL EGF. In a control experiment, the stimulation was abolished by a monoclonal antibody to EGF that is known to block receptor binding.
# [4] = tested on: mouse and human fibroblasts; conditions: previously reported; cited from earlier work
compound,measurement,setting,value
CN1[C@@H]2CC[C@H]1C[C@@H](OC(=O)C(CO)c1ccccc1)C2 (stereo partly drawn) [Atropine],effect on cells alone,[1],no significant effect
NC(=O)c1ncn([C@@H]2O[C@H](CO)[C@@H](O)[C@H]2O)n1 [ribavirin],effect on VSV-induced change of host cell metabolism,[2],inhibition
"EGF: epidermal growth factor (mouse EGF) (NSYPGCPSSYDGYCLNGGVCMHIESLDSYTCNCVIGYSGDRCQTRDLRWWELR; Epidermal growth factor; UniProt P01132 977-1029, looked up)",metabolic response of keratinocytes to EGF,"[3]; 5 ng/ml mouse EGF, FIG. 43",metabolic burst
same,metabolic rate at the peak,"[3]; 50 ng/mL EGF, FIG. 44",nearly doubled
same,time from peak to decay to a steadily rising baseline,"[3]; 50 ng/mL EGF, FIG. 44",15 min
same,time to peak of response,"[3]; 50 ng/mL EGF, FIG. 44",~ 15 min
same,time to rise in metabolic rate,"[3]; 50 ng/mL EGF, FIG. 44",≤ 5 min
same,lowest concentration with observable stimulation of acidification rate,[3]; EGF,0.1 ng/mL
same,effect on glycolytic rate,[4],rapid increase in glycolytic rate
